Laboratory results as given in PubChem BioAssay (NCI).
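Briefly, cells in 96-well plates were exposed to five compound concentrations for 48 h, and endpoints were estimated by linear interpolation. GI50 = concentration required for 50% inhibition of growth. TGI: total growth inhibition.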

Assays:
Experiment in all cases: NCI tumour cell line growth inhibition, 48 h
[1] = tested on: SK-MEL-28 melanoma
[2] = tested on: SNB-19 CNS
[3] = tested on: SW-620 colon
[4] = tested on: BT-549 breast
[5] = tested on: RPMI-8226 leukemia
[6] = tested on: SF-268 CNS
[7] = tested on: HS 578T breast
[8] = tested on: HOP-62 NSCLC
[9] = tested on: SK-MEL-5 melanoma
[10] = tested on: HOP-92 NSCLC

Q: Which GI50 [1] does the source give for `COc1cc(S(=O)(=O)Nc2ccc(C(=O)/C=C/c3ccc(O)cc3)cc2)ccc1F` here?
A: > 100 µM

Q: And the TGI [1]?
A: > 100 µM

Q: What about the GI50 [2] of the same compound?
A: > 100 µM

Q: What about the TGI [2] of the same compound?
A: > 100 µM

Q: And the GI50 [3]?
A: > 100 µM

Q: And the TGI [3]?
A: > 100 µM

Q: What about the GI50 [4] of the same compound?
A: > 100 µM

Q: And the TGI [4]?
A: > 100 µM

Q: And the GI50 [5]?
A: 58.5 µM

Q: And the TGI [5]?
A: > 100 µM

Q: What about the GI50 [6] of the same compound?
A: > 100 µM

Q: What about the TGI [6] of the same compound?
A: > 100 µM

Q: And the GI50 [7]?
A: > 100 µM

Q: What about the TGI [7] of the same compound?
A: > 100 µM

Q: What about the GI50 [8] of the same compound?
A: > 100 µM

Q: What about the TGI [8] of the same compound?
A: > 100 µM

Q: And the GI50 [9]?
A: > 100 µM

Q: What about the TGI [9] of the same compound?
A: > 100 µM

Q: What about the GI50 [10] of the same compound?
A: 1.55 µM

Q: And the TGI [10]?
A: 27.5 µM
